# Results: article PMC11324527, “Cryo-EM architecture of a near-native stretch-sensitive membrane microdomain” (Nature, 2024)
# Assays:
# [1] = biological target: T1, Pil1 (recombinant, reconstituted tubules) (Saccharomyces cerevisiae, UniProt P53252); test: cryo-EM helical reconstruction of reconstituted tubules; type: binding
# T1 construct: PIL1 in pCoofy6, 6xHis-Sumo3 tag cleaved by SenP2, E. coli BL21(DE3)pLysS; homodimer in helical lattice on lipid tubules; model stops before residue 275
# T1 sequence (P53252 1-339): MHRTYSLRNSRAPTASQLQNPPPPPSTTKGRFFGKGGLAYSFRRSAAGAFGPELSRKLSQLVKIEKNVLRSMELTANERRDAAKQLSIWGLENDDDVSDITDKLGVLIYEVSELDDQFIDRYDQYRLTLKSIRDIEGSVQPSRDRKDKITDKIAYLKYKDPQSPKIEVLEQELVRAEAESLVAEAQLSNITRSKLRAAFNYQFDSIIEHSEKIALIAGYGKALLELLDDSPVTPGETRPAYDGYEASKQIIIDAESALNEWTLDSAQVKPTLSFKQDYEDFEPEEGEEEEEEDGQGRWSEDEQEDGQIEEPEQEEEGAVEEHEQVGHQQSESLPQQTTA
# Pil1–mCherry = Pil1–mCherry (Saccharomyces cerevisiae, UniProt P53252); details: labelled compound; 1% PI(4,5)P2; PI(4,5)P2-dependent; pH 7.4, 150 mM KoAc, 2 mM MgAc
# [2] = biological target: the molecule itself; test: cryo-EM structure; native-source eisosome tubules isolated from S. cerevisiae with bound plasma membrane bilayer; helical reconstruction of nine tubule types, symmetry expansion and density subtraction; dimers in a helical lattice
# [3] = biological target: the molecule itself; test: cryo-EM structure; 15-20 uM recombinant Pil1 with about 2 mg/ml LUVs of known lipid mixtures, 30 °C for one hour, 20 mM HEPES pH 7.4, 150 mM KoAc, 2 mM MgAc; helical reconstruction; dimers in a helical lattice
molecule,measurement,setting,value
CCCCCCCC/C=C\CCCCCCCC(=O)OC[C@H](COP(=O)(O)OC[C@H](N)C(=O)O)OC(=O)CCCCCCC/C=C\CCCCCCCC [DOPS],cryo-EM helical reconstruction of reconstituted tubules,"[1]; +PI(4,5)P2/+sterol (15% cholesterol) mixture, site R43, K66, R70",This density accommodates a phosphatidylserine (PS) lipid (DOPS is present in our lipid mixtures)
CC1=CC(C)=[N+]2C1=C(CC[C@@H](C)[C@H]1CC[C@H]3[C@@H]4CC=C5C[C@@H](O)CC[C@]5(C)[C@H]4CC[C@]13C)c1c(C)cc(C)n1[B-]2(F)F [TF-cholesterol],mobile fraction,Pil1–mCherry,immobilized fraction of cholesterol interacts strongly with Pil1 and/or other lipids bound to the protein
CC(C)CCC[C@@H](C)[C@H]1CC[C@H]2[C@@H]3CC=C4C[C@@H](O)CC[C@]4(C)[C@H]3CC[C@]12C [cholesterol],cryo-EM helical reconstruction of reconstituted tubules,"[1]; +PI(4,5)P2/+sterol (15% cholesterol), void pattern below amphipathic helix, sterol not modelled",this pattern results from the stable association of sterol molecules with the AH
"Pil1 (native-source eisosome) (natural protein, S. cerevisiae (endogenous in yeast), UniProt P53252 1-339, looked up, Pil1, BAR-domain eisosome protein of S. cerevisiae; model built up to residue 274 (C-terminal region from residue 275 removed, no density); Stands in the tubules as dimers in a helical lattice; also called Pil1/Lsp1; PIL1_YEAST; source: endogenous, untagged, S. cerevisiae) MHRTYSLRNSRAPTASQLQNPPPPPSTTKGRFFGKGGLAYSFRRSAAGAFGPELSRKLSQLVKIEKNVLRSMELTANERRDAAKQLSIWGLENDDDVSDITDKLGVLIYEVSELDDQFIDRYDQYRLTLKSIRDIEGSVQPSRDRKDKITDKIAYLKYKDPQSPKIEVLEQELVRAEAESLVAEAQLSNITRSKLRAAFNYQFDSIIEHSEKIALIAGYGKALLELLDDSPVTPGETRPAYDGYEASKQIIIDAESALNEWTLDSAQVKPTLSFKQDYEDFEPEEGEEEEEEDGQGRWSEDEQEDGQIEEPEQEEEGAVEEHEQVGHQQSESLPQQTTA",stoichiometry N,[2],2
"Recombinant Pil1 (natural protein, S. cerevisiae, UniProt P53252 1-339, looked up, Pil1 of S. cerevisiae, PIL1 cloned into pCoofy6 with primers from the start codon to the stop codon; Vector pCoofy6 (Addgene plasmid 43990) gives 6xHis-Sumo3; the Sumo3 tag was cleaved off with SenP2; It forms dimers in a helical lattice on liposomes; also called purified Pil1; reconstituted Pil1; source: E. coli BL21(DE3)pLysS, purified (HisTrap, HiTrap Q, SenP2 cleavage, Superdex 200); not …) MHRTYSLRNSRAPTASQLQNPPPPPSTTKGRFFGKGGLAYSFRRSAAGAFGPELSRKLSQLVKIEKNVLRSMELTANERRDAAKQLSIWGLENDDDVSDITDKLGVLIYEVSELDDQFIDRYDQYRLTLKSIRDIEGSVQPSRDRKDKITDKIAYLKYKDPQSPKIEVLEQELVRAEAESLVAEAQLSNITRSKLRAAFNYQFDSIIEHSEKIALIAGYGKALLELLDDSPVTPGETRPAYDGYEASKQIIIDAESALNEWTLDSAQVKPTLSFKQDYEDFEPEEGEEEEEEDGQGRWSEDEQEDGQIEEPEQEEEGAVEEHEQVGHQQSESLPQQTTA",stoichiometry N,[3],2
